Holding throughout (type): cell-based
The subject of experiment [1] is Acinetobacter calcoaceticus. The experiment can be described thus: MIC, 2-fold dilution method in micro-well plate, A. calcoaceticus. As for the experimental part: (§1) The in vitro antibiotic activity of the present compound is measured using 2-fold dilution method with a micro-well plate and the bacteria are inoculated in about 10^5 cfu/ml after an overnight culture in a brain-heart infusion (BHI) broth at 37° C. The novel compounds of the present invention are converted to a hydrochloride salt form and diluted with a sterilized distilled water to make 10 mg/ml aqueous solution. After the mother liquor wherein the compound is diluted to the two-fold concentration has been obtained in the form of an aqueous solution, the respective 0.1 ml of diluted liquor is transferred to a well and is inoculated with 0.1 ml of the culture fluid to make about (10^5 -10^6)/2 cfu/ml.
(§2) After cultivation at 37° C., the minimum inhibitory concentration (MIC) is measured and recorded in Table I-V.
Table I-V show the minimum inhibitory concentrations (MIC). […]

Experiment [2] concerns Citrobacter freundii ATCC 8090. Briefly: MIC, 2-fold dilution method in micro-well plate, C. freundii. As for the experimental part:
as §1, §2
(§3) Table I-V show the minimum inhibitory concentrations (MIC).
Citrobacter freundii ATCC 8090

The subject of experiment [3] is Enterobacter aerogenes ATCC 13048. The experiment can be described thus: MIC, 2-fold dilution method in micro-well plate, E. aerogenes. To be noted: Klebsiella aerogenes. On the procedure:
as §1, §2, §3
Enterobacter aerogenes ATCC 13048

Another experiment relates to Enterobacter cloacae. Briefly: MIC, 2-fold dilution method in micro-well plate, E. cloacae. To be noted: read-out: Minimum Inhibitory Concentration. On the procedure: as §1, §2, §3
Enterobacter cloacae ATCC 23355

For experiment [4], the system named is Escherichia coli ATCC 25922. Briefly: MIC, 2-fold dilution method in micro-well plate, E. coli. On the procedure:
as §1, §2, §3
Escherichia coli ATCC 25922

Experiment [5] relates to Haemophilus influenza ATCC 35056. The experiment can be described thus: MIC, 2-fold dilution method in micro-well plate, H. influenzae. To be noted: H. influenzae ATCC35056, 37° C.; read-out: Minimum Inhibitory Concentration. As for the experimental part:
as §1, §2, §3
Haemophilus influenza ATCC 35056

The test system of experiment [6] is Klebsiella pneumoniae ATCC 13883. Briefly: MIC, 2-fold dilution method in micro-well plate, K. pneumoniae. On the procedure:
as §1, §2, §3
Klebsiella pneumoniae ATCC 13883

Experiment [7] has as its system Proteus vulgaris ATCC 13315. The experiment can be described thus: MIC, 2-fold dilution method in micro-well plate, P. vulgaris. On the procedure: as §1, §2, §3
Proteus vulgaris ATCC 13315

Experiment [8] concerns Pseudomonas aeruginosa ATCC 27853. Briefly: MIC, 2-fold dilution method in micro-well plate, P. aeruginosa. As for the experimental part: as §1, §2, §3
Pseudomonas aeruginosa ATCC 27853

Experiment [9] concerns Salmonella typhimurium ATCC 14028. Briefly: MIC, 2-fold dilution method in micro-well plate, S. typhimurium. To be noted: Salmonella enterica, read-out: Minimum Inhibitory Concentration. As for the experimental part: as §1, §2, §3
Salmonella typhimurium ATCC 14028

Experiment [10] has as its system Shigella flexneri ATCC 12022. Briefly: MIC, 2-fold dilution method in micro-well plate, S. flexneri. To be noted: S. flexneri ATCC12022, 37° C., read-out: Minimum Inhibitory Concentration. As for the experimental part: as §1, §2, §3
Shigella flexneri ATCC 12022

Experiment [11] relates to Shigella sonnei ATCC 25931. Briefly: MIC, 2-fold dilution method in micro-well plate, S. sonnei. As to conditions: S. sonnei ATCC25931, 37° C., read-out: Minimum Inhibitory Concentration. As for the experimental part:
as §1, §2, §3
Shigella sonnei ATCC 25931

The subject of experiment [12] is Serratia marcescens ATCC 8100. Briefly: MIC, 2-fold dilution method in micro-well plate, S. marcescens. On the procedure: as §1, §2, §3
Serratia marcescens ATCC 8100

Experiment [13] relates to Streptococcus faecalis ATCC 19433. Briefly: MIC, 2-fold dilution method in micro-well plate, S. faecalis ATCC 19433. As to conditions: Enterococcus faecalis; S. faecalis ATCC19433, 37° C.; read-out: Minimum Inhibitory Concentration. On the procedure:
as §1, §2, §3
Streptococcus faecalis ATCC 19433

The test system of experiment [14] is Streptococcus faecalis ATCC 29212. Briefly: MIC, 2-fold dilution method in micro-well plate, S. faecalis ATCC 29212. To be noted: Enterococcus faecalis; S. faecalis ATCC29212, 37° C.; read-out: Minimum Inhibitory Concentration. On the procedure: as §1, §2, §3
Streptococcus faecalis ATCC 29212

Experiment [15] has as its system Streptococcus pneumoniae ATCC 6303. Briefly: MIC, 2-fold dilution method in micro-well plate, S. pneumoniae. To be noted: S. pneuinoniae ATCC6303, 37° C., read-out: Minimum Inhibitory Concentration. As for the experimental part:
as §1, §2, §3
Streptococcus pneumoniae ATCC 6303

Experiment [16] has as its system Streptococcus pyrogens ATCC 19615. The experiment can be described thus: MIC, 2-fold dilution method in micro-well plate, S. pyrogens. To be noted: S. pyrogenes ATCC19615, 37° C., read-out: Minimum Inhibitory Concentration. On the procedure:
as §1, §2, §3
Streptococcus pyrogens ATCC 19615

Where [17] appears, read: A. calcoaceticus ATCC8090 (as in tables), 37° C., read-out: Minimum Inhibitory Concentration.
Setting [18] is: C. freundii ATCC8090, 37° C., read-out: Minimum Inhibitory Concentration.
Setting [19] is: E. aerogenes ATCC13048, 37° C., read-out: Minimum Inhibitory Concentration.
Setting [20] is: E. coli ATCC25922, 37° C., read-out: Minimum Inhibitory Concentration.
[21] abbreviates: P. aerugirnosa ATCC27853, 37° C., read-out: Minimum Inhibitory Concentration.
Where [22] appears, read: S. marcescens ATCC8100, 37° C., read-out: Minimum Inhibitory Concentration.
[23] abbreviates: ATCC8090, read-out: Minimum Inhibitory Concentration.
The mark [24] stands for this setting: ATCC13048, read-out: Minimum Inhibitory Concentration.
Where [25] appears, read: ATCC25922, read-out: Minimum Inhibitory Concentration.
[26] abbreviates: ATCC13883, read-out: Minimum Inhibitory Concentration.
Setting [27] is: ATCC13315, read-out: Minimum Inhibitory Concentration.
The mark [28] stands for this setting: ATCC8100, read-out: Minimum Inhibitory Concentration.

Molecules are shown by their SMILES. Where two headings read alike, the source gives them in different places.

Regarding `Cl.N[C@H]1CCN(c2cc3c(cc2F)c(=O)c(C(=O)O)cn3-c2ccc(F)cn2)C1` [Example 22, 1-(5-fluoro-2-pyridyl)-6-fluoro-7-[(3S)-3-amino-1-pyrrolidinyl]-1,4-dihydro-4-oxoquinoline-3-carboxylic acid hydrochloride], the MIC was 0.313 µg/mL in experiment [1] (setting [17]); 0.039 µg/mL in [2] (setting [18]); 0.078 µg/mL in experiment [3] (setting [19]); 0.078 µg/mL with Enterobacter cloacae (E. cloacae ATCC23355 (as in tables), 37° C.); 0.039 µg/mL in [4] (setting [20]); 0.078 µg/mL in [5]. Further, the MIC in experiment [6] (K. pneumoniae ATCC13883, 37° C., read-out: Minimum Inhibitory Concentration) was 0.039 µg/mL; in experiment [7] (P. vulgaris ATCC13315, 37° C., read-out: Minimum Inhibitory Concentration) it was 0.078 µg/mL; in experiment [8] (setting [21]), 0.156 µg/mL; in experiment [9] (S. typhisurium ATCC14028, 37° C.), 0.078 µg/mL; in [10], 0.156 µg/mL; in experiment [11], 0.039 µg/mL. Also, the MIC came to 0.078 µg/mL in experiment [12] (setting [22]); 0.625 µg/mL in experiment [13]; 1.25 µg/mL in experiment [14]; 1.25 µg/mL in experiment [15]; 2.5 µg/mL in experiment [16].

On to `CC1CN(c2nc3c(cc2F)c(=O)c(C(=O)O)cn3-c2ccncc2F)CCN1.Cl` (centres unmarked) [Example 9, 1-(3-fluoro-4-pyridyl)-6-fluoro-7-(3-methyl-1-piperazinyl)-1,4-dihydro-4-oxo-1,8-naphthyridine-3-carboxylic acid hydrochloride], for which the MIC in [1] (setting [17]) was 10 µg/mL; in experiment [2] (setting [23]) it was 1.25 µg/mL; in experiment [3] (setting [24]), 0.625 µg/mL; in the experiment on Enterobacter cloacae, 0.625 µg/mL; in experiment [4] (setting [25]) it was 0.625 µg/mL; in [5], 1.25 µg/mL. For the same compound, the MIC in experiment [6] (setting [26]) stood at 1.25 µg/mL; in experiment [7] (setting [27]) it was 0.625 µg/mL; in experiment [8] (ATCC27853, read-out: Minimum Inhibitory Concentration) it was 0.625 µg/mL; in experiment [9] it was 0.625 µg/mL; in experiment [10], 0.625 µg/mL; in experiment [11] it was 0.625 µg/mL. Moreover, the MIC stood at 1.25 µg/mL in experiment [12] (setting [28]); 2.5 µg/mL in [13]; 2.5 µg/mL in experiment [14]; 5 µg/mL in experiment [15]; 10 µg/mL in experiment [16].

With `CN1CCN(c2c(F)cc3c(=O)c(C(=O)O)cn(-c4ccc(F)cn4)c3c2F)CC1.Cl` [Example 24, 1-(5-fluoro-2-pyridyl)-6,8-difluoro-7-(4-methyl-1-piperazinyl)-1,4-dihydro-4-oxoquinoline-3-carboxylic acid hydrochloride], the MIC in [1] (setting [23]) was 0.625 µg/mL; in experiment [2] (setting [23]), 0.625 µg/mL; in experiment [3] (setting [24]) it was 0.625 µg/mL; with Enterobacter cloacae it was 0.625 µg/mL; in experiment [4] (setting [25]), 0.625 µg/mL; in experiment [5], 0.313 µg/mL. For the same compound, the MIC in [6] (setting [26]) came out at 0.625 µg/mL; in experiment [7] (setting [27]), 0.625 µg/mL; in experiment [8] (setting [21]) it was 0.625 µg/mL; in experiment [9] it was 0.313 µg/mL; in [10], 0.625 µg/mL; in [11], 0.156 µg/mL. The MIC in experiment [12] (setting [28]) stood at 0.625 µg/mL; in experiment [13] it was 5 µg/mL; in [14], 2.5 µg/mL; in [15], 5 µg/mL; in [16], 10 µg/mL.

Consider `Cl.O=C(O)c1cn(-c2ccncc2F)c2cc(N3CCNCC3)c(F)cc2c1=O` [Example 1, 1-(3-fluoro-4-pyridyl)-6-fluoro-7-(1-piperazinyl)-1,4-dihydro-4-oxoquinoline-3-carboxylic acid hydrochloride], for which the MIC is 0.625 µg/mL in [1] (setting [23]); 1.25 µg/mL in experiment [2] (setting [18]); 1.25 µg/mL in experiment [3] (setting [19]); 0.625 µg/mL in the experiment with Enterobacter cloacae; 1.25 µg/mL in experiment [4] (setting [20]); 0.625 µg/mL in [5]. Moreover, the MIC in experiment [6] (setting [26]), in [7] (setting [27]), in experiment [8] (setting [21]), in experiment [9], in [10] and in experiment [11] was 0.625 µg/mL in each case. Besides, the MIC in [12] (setting [22]) came out at 0.313 µg/mL; in [13], 5 µg/mL; in experiment [14], 5 µg/mL; in experiment [15] it was 2.5 µg/mL; in [16], 5 µg/mL.

Source of the values: patent US5496947A, “Quinolone carboxylic acid derivatives” (Dong Wha Pharmaceutical Industrial Co., Ltd., priority 1994, dated 1996).
